Assay results taken from publication PMC9365377 (Clinical Cancer Research, 2022).
“Also recorded” adds a separate entry of the source. Like-named read-outs stand apart in the source and are kept apart here.

Experiments:
[1] = tested on: advanced, previously untreated, unresectable, stage IIIC or IV NRAS-mutant melanoma; conditions: cited from earlier work
[2] = tested on: patients with NRAS-mutant melanoma; assay: Phase Ib dose escalation: DLTs in cycle 1, MTD/RP2D determination; format: in vivo, human; conditions: 28-day schedule
[3] = Plasma pharmacokinetics; format: in vivo, human; conditions: for Tmax: steady state; for Cmax: human, Cmax at steady state, geometric mean (geometric %CV)
[4] = phase I study, 3 weeks on/1 week off; cited from earlier work
[5] = phase I study; cited from earlier work
[6] = binimetinib 45 mg orally twice daily or dacarbazine 1,000 mg/m^2 intravenously every 3 weeks, 402 patients
[7] = patients who received prior immunotherapy
[8] = binimetinib 45 mg twice daily + ribociclib 200 mg once daily, 28-day schedule, 11 subjects

SMILES | median PFS [1, 6] [months] | median PFS [1, 7] [months] | RP2D (in the combination) ([2]; 21 days on/7 days off) [mg once daily] | Tmax [3, 8] | Dose proportionality of steady-state exposures ([3]; dose-escalation range of 200 to 600 mg once daily) | Cmax ([3]; plasma, 600 mg ribociclib coadministered with binimetinib, 21-day cycle) [ng/mL] | Cmax ([3]; plasma, binimetinib 45 mg twice daily + ribociclib 200 mg once daily, 28-day schedule, 11 subjects, plasma) [ng/mL] | recommended dose for expansion, single agent [4] [mg/day] | RP2D (in the combination) ([2]; continuous dosing) [mg twice daily] | AUCtau at steady state, geometric mean (geometric %CV) ([3]; binimetinib 45 mg twice daily + ribociclib 200 mg once daily, 28-day schedule, 11 subjects, plasma) | PFS HR, binimetinib vs dacarbazine ([1]; 95% CI, 0.47–0.80, one-sided P < 0.001) | OS HR, binimetinib vs dacarbazine ([1]; 95% CI, 0.75–1.33, one-sided P = 0.50) | recommended phase II dose (RP2D), single agent [5] [mg twice daily]
CN(C)/N=N/c1[nH]cnc1C(N)=O [dacarbazine] | 1.5 | 1.6 | – | – | – | – | – | – | – | – | – | – | –
CN(C)C(=O)c1cc2cnc(Nc3ccc(N4CCNCC4)cn3)nc2n1C1CCCC1 [ribociclib] | – | – | 200 | about 2.25 hour postdose | increased greater than dose proportionally; also recorded: greater than dose proportional | 1910 | 220 | 600 | – | – | – | – | –
Cn1cnc2c(F)c(Nc3ccc(Br)cc3F)c(C(=O)NOCCO)cc21 [binimetinib] | 2.8 | 5.5 | – | about 1.00 hour postdose | – | – | – | – | 45 | 2,250 (37.7%) hour*ng/mL | 0.62 | 1.00 | 45
